Data: paper PMC11731258, “The structural basis for high-affinity c-di-GMP binding to the GSPII-B domain of the traffic ATPase PilF from Thermus thermophilus” (The Journal of Biological Chemistry, 2024)

Assays:
[1] = biological target: T1, PilF159-302 (GSPII-B domain) (Thermus thermophilus, UniProt Q5SLC9); experiment: ITC binding to PilF159-302; details: for N / ΔH / ΔS / Kd: ITC
T1 sequence (Q5SLC9 159-302): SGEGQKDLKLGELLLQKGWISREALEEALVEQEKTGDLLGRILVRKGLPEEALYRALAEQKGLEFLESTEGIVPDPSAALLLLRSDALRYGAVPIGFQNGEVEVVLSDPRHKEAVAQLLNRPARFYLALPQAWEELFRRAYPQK
Procedure: To assess the ligand-binding capabilities of the various PilF constructs, triplicates of ITC measurements were recorded for each construct. The measurements were carried out using a MicroCal ITC200 (Malvern Panalytical). […] All protein samples were extensively dialyzed against the sample buffer and the buffer used for dialysis was used to dilute protein and c-di-GMP samples in preparation for the ITC measurements. Each measurement was conducted using the following protocol. In total, 39.8 μl c-di-GMP were titrated to 270 μl protein in 20 separate injections in 180 s intervals with a stirring speed of 750 rpm. After an initial delay of 120 s, the first injection of 0.2 μl c-di-GMP with a duration of 0.4 s was followed by 19 injections of 2 μl with a duration of 4 s. During the measurement, the feedback mode was set to high and the reference power to 11 μcal s^−1. To optimize precision of the measurements, protein and c-di-GMP concentrations were adjusted to the binding capabilities of the respective constructs and ranged from 5 to 200 μM for protein and 50 to 2000 μM for c-di-GMP. All thermograms were processed using Origin 7.0 (OriginLab) using a one-site– or two-site–binding model dependent on the number of expected binding events.

[2] = system: PilF GSPII-A domain; experiment: ITC comparison of domain truncation constructs; type: binding, Thermus thermophilus; details: inferred from ITC of PilF1-302 vs PilF159-302 and PilF1-482
Procedure: To assess the ligand-binding capabilities of the various PilF constructs, triplicates of ITC measurements were recorded for each construct. The measurements were carried out using a MicroCal ITC200 (Malvern Panalytical). All ITC experiments were conducted at 20 °C with 50 mM Tris-HCl pH 7.5, 200 mM sodium chloride, 1 mM β-mercaptoethanol as the sample buffer. All protein samples were extensively dialyzed against the sample buffer and the buffer used for dialysis was used to dilute protein and c-di-GMP samples in preparation for the ITC measurements. Each measurement was conducted using the following protocol. In total, 39.8 μl c-di-GMP were titrated to 270 μl protein in 20 separate injections in 180 s intervals with a stirring speed of 750 rpm. After an initial delay of 120 s, the first injection of 0.2 μl c-di-GMP with a duration of 0.4 s was followed by 19 injections of 2 μl with a duration of 4 s. During the measurement, the feedback mode was set to high and the reference power to 11 μcal s^−1. To optimize precision of the measurements, protein and c-di-GMP concentrations were adjusted to the binding capabilities of the respective constructs and ranged from 5 to 200 μM for protein and 50 to 2000 μM for c-di-GMP. All thermograms were processed using Origin 7.0 (OriginLab) using a one-site– or two-site–binding model dependent on the number of expected binding events.

For `Nc1nc2c(ncn2[C@@H]2O[C@@H]3COP(=O)(O)O[C@H]4[C@@H](O)[C@H](n5cnc6c(=O)[nH]c(N)nc65)O[C@@H]4COP(=O)(O)O[C@H]3[C@H]2O)c(=O)[nH]1` [c-di-GMP, cyclic dimeric guanosine monophosphate], the “fold higher affinity than MshEN” value ([1]; GSPII-B (KD 6 nM) vs MshEN (KD 500 nM)) was 83 fold, the N ([1]; 20 °C) was 0.66 ± 0.02 and the ΔH ([1]; 20 °C) was -10795 ± 1145 cal/mol. For the same compound, the ΔS ([1]; 20 °C) was -0.8 ± 4.0 cal/mol/deg, the N ([1]; 45 °C) was 0.88 ± 0.11 and the ΔH ([1]; 45 °C) was -13327 ± 1389 cal/mol. It also gave a ΔS ([1]; 45 °C) of -6.6 ± 4.2 cal/mol/deg, a Kd ([1]; 20 °C, pH 7.5) of 6 nM and a Kd ([1]; 45 °C) of 20 nM. For the same compound, the “increase in the free enthalpy of binding compared to MshEN” value ([1]; at 20 °C) was about 2.7 kcal/mol and the “ability to bind c-di-GMP” value [2] was “lacking the ability to bind c-di-GMP”.
